Earlier results on two molecules are cited in patent US5962457A, “2,3 Disubstituted- (5,6)-heteroarylfused-pyrimidine-4-ones” (Pfizer Inc., priority 1997, dated 1999).

The conditions of data set [1]: rat global ischemia models; LaPeillet et al.
For data set [2] the following is noted: focal and global ischemia models; Sheardown et al., Buchan et al., LePeillet et al.

On to `CC1=NN=C(c2ccc(N)cc2)c2cc3c(cc2C1)OCO3` [GKYI 52466], for which the “neuroprotection in global ischemia” value in data set [1] was “effective neuroprotective agent”.
Consider `NS(=O)(=O)c1cccc2c1c([N+](=O)[O-])cc1[nH]c(=O)c(=O)[nH]c12` [NBQX, 2,3-dihydroxy-6-nitro-7-sulfamoylbenzo[f-]quinoxaline], for which the “prevention of global and focal ischemic damage” value in data set [2] was “effective in preventing global and focal ischemic damage”.
